Test results: EP0730589B1, “ISOXAZOLINE COMPOUNDS USEFUL AS […] ANTAGONISTS” (THE DU PONT MERCK PHARMACEUTICAL COMPANY, priority 1993, dated 1995)

What follows are compounds tested on platelet aggregation (assay: Platelet aggregation assay (platelet rich plasma, PRP)). Settings: inhibition of agonist-induced aggregation in human platelet rich plasma (PRP); ester prodrugs preincubated with porcine liver esterase, ADP-induced.
Format: cell-based
Method: Platelet Aggregation Assay: Venous blood was obtained from the arm of a healthy human donor who was drug-free and aspirin-free for at least two weeks prior to blood collection. Blood was collected into 10 mL citrated vacutainer tubes. The blood was centrifuged for 15 minutes at 150 x g at room temperature, and platelet-rich plasma (PRP) was removed. The remaining blood was centrifuged for 15 minutes at 1500 x g at room temperature, and platelet-poor plasma (PPP) was removed. Samples were assayed on a aggregometer (PAP-4 Platelet Aggregation Profiler), using PPP as the blank (100% transmittance). 200 µL of PRP was added to each micro test tube, and transmittance was set to 0%. 20 µL of various agonists (ADP, collagen, arachidonate, epinephrine, thrombin) were added to each tube, and the aggregation profiles were plotted (% transmittance versus time). The results are expressed as % inhibition of agonist-induced platelet aggregation. For the IC50 evaluation, the test compounds were added at various concentrations prior to the activation of the platelets.
Ester prodrugs were preincubated (10^-3 M F.C.) with 100 IU/ml Porcine liver esterase (Sigma Chemical Co., St. Louis, MO, #E-3128) for 2 hours at 37 °C. Aliquots are then diluted in 0.1 M Tris, pH 7.4, to the desired concentrations. Aliquots of 20 µl of the esterase pretreated prodrugs are added to 200 µl of human platelet rich plasma. Samples were placed in platelet profiler (aggregometer) for 8 minutes at 37 °C, followed by the addition of 100 µM adenosine diphosphate (Sigma Chemical Co., St. Louis, MO, #A-6521), to induce platelet aggregation. Platelet aggregation was allowed to proceed for 5 minutes. Percent inhibition is calculated using percent aggregation in the presence of the test compound divided by percent aggregation of control, times 100. This value is subtracted from 100, yielding percent inhibition. Calculation of IC50 is performed on a Texas Instruments TI59 with an IC50 program.
Table 2 below sets forth the biological activity of representative compounds of the present invention. The indicated compounds were tested for their ability to inhibit platelet aggregation (using platelet rich plasma (PRP)). The IC50 value (the concentration of antagonist which inhibits platelet aggregation by 50% relative to a control lacking the antagonist) is shown. In Table 5 the IC50 values are expressed as: +++ = IC50 of <10 µM; ++ = ICso of 10-50 µM; + = IC50 of 50-100 µM (µM = micromolar).

| SMILES | IC50 |
| --- | --- |
| N=C(N)c1ccc(C2=NOC(CC(=O)NCCC(=O)O)C2)cc1 (racemic) [Example 1, 5(R,S)-3-[3-(4-Amidinophenyl)isoxazolin-5-ylacetyl]aminopropanoic Acid] | < 10 µM |
| CNC(=N)c1ccc(C2=NOC(CC(=O)NCCC(=O)O)C2)cc1 (racemic) [Example 21] | < 10 µM |
| CCCNC(=N)c1ccc(C2=NOC(CC(=O)NCCC(=O)O)C2)cc1 (racemic) [Example 25] | < 10 µM |
| CCCCNC(=N)c1ccc(C2=NOC(CC(=O)NCCC(=O)OCC)C2)cc1 (racemic) [Example 26, Ethyl 5(R,S)-3-[3-(4-N-n-Butylamidinophenyl)isoxazolin-5-ylacetyl]aminopropanoate] | < 10 µM |
| CCCCNC(=N)c1ccc(C2=NOC(CC(=O)NCCC(=O)O)C2)cc1 (racemic) [Example 27] | < 10 µM |
| CCCCCNC(=N)c1ccc(C2=NOC(CC(=O)NCCC(=O)OCC)C2)cc1 (racemic) [Example 29] | < 10 µM |
| CCOC(=O)CCNC(=O)CC1CC(c2ccc(C(=N)NCCC(C)C)cc2)=NO1 (racemic) [Example 31] | < 10 µM |
| CCCCCNC(=N)c1ccc(C2=NOC(CC(=O)NCCC(=O)O)C2)cc1 (stereo not drawn) [Example 28] | < 10 µM |
| COC(=O)CCNC(=O)CC1CC(c2ccc(C(=N)NCc3ccccc3)cc2)=NO1 (stereo not drawn) [Example 32] | < 10 µM |
